Assay results published in patent publication US20240383922A1, “KRAS Modulating Compounds” (Gilead Sciences, Inc., priority 2023, published 2024).
pEC50: −log10 of the molar value. Where two headings read alike, the source gives them in different places.

How the values were obtained:
[1] = tested on: cellular pERK in MIA-PaCa-2 (KRAS-G12C) cell-line; assay: Cell based pERK assay (HTRF), MIA-PaCa-2; conditions: MIA-PaCa-2 (KRAS-G12C) cells, 2 hours incubation, read-out: MIAPaCa2 pERK EC50
Method: (§1) Compounds were tested in a 384-well assay format for their ability to inhibit cellular pERK in Kuramochi (WT KRAS), MIA-PaCa-2 (KRAS-G12C), ASPC-1 (KRAS G12D), and NCI-H441 (KRAS-G12V) cell-lines. Compounds were serially diluted (1:3) in DMSO. On day −1, 80 uL of cells were plated per well in the 384 well tissue-culture plates (Greiner: Cat #781080) to seed 5000 cells per wells of AsPC-1 or 7500 cells of MIA-PaCa-2, NCI-H441, and Kuramochi cell lines in RPMI (Corning: Cat #10-040-CM) with 10% fetal bovine serum (FBS) (HyClone: Cat #SH30071-03) and 1× penicillin-streptomycin-glutamate (PSG) (Corning: Cat #30-009-CI) for […] and Kuramochi cell lines and DMEM (Corning: Cat #15-018-CM) with […] and 1× PSG for MKA-PaCa-2 cell line. The plates were then incubated overnight at 37° C. and 5% CO2. On day 0, 400 nL of compound/well was added into the cell plates and mixed 5 times by pipetting using a Beckmann Biomek FX. The cell plates were then incubated for 2 hours at 37° C. and 5% CO2. HTRF Advanced Phospho-ERK1/2 ([…]) Detection Kits (PerkinElmer: Cat #64AERPEG) were used to prepare the lysis and detection solution according to manufacturer protocol. Following the 2 hour incubation, 70 μL of medium was aspirated from the plates and 10 uL of lysis and detection solution was added to the plates using a Biotek EL406 washer and dispenser. Plates were sealed and stored overnight at room temperature. HTRF ratio (665 nm/615 nm) was read by Envision multimode reader (PerkinElmer) the next day. The TR-FRET ratios were normalized to a positive (saturating concentration of known inhibitor) and negative (DMSO) control and plotted against the log of compound concentration. IC50 values were defined as the compound concentration that causes a […] in normalized signal and were calculated using a sigmoidal dose-response model to generate curve fits.

[2] = tested on: cellular pERK in Kuramochi (WT KRAS) cell-line; assay: Cell based pERK assay (HTRF), Kuramochi; conditions: Kuramochi (WT KRAS) cells, 2 hours incubation
Method: as §1

[3] = tested on: cellular pERK in ASPC-1 (KRAS G12D) cell-line; assay: Cell based pERK assay (HTRF), ASPC-1; conditions: ASPC-1 (KRAS G12D) cells, 2 hours incubation
Method: as §1

[4] = tested on: cellular pERK in NCI-H441 (KRAS-G12V) cell-line; assay: Cell based pERK assay (HTRF), NCI-H441; conditions: NCI-H441 (KRAS-G12V) cells, 2 hours incubation
Method: as §1

SMILES	pEC50 [1]	pEC50 [2]	pEC50 ([3]; read-out: AsPC1 pERK EC50)	pEC50 [4]	pEC50 ([1]; Homo sapiens)	pEC50 ([3]; Homo sapiens, ASPC1)	pEC50 ([4]; Homo sapiens)
C#Cc1c(F)ccc2cc(O)cc(-c3nc4c5c(nc(OC[C@@]67CCCN6C[C@H](F)C7)nc5c3F)N3CC(F)(F)COCC3CC4)c12 (mixture of isomers) [Example 6-17]	–	–	–	–	9.15	7.97	8.43
C#Cc1c(F)ccc2cc(O)cc(-c3nc4c5c(nc(OC[C@@]67CCCN6C[C@H](F)C7)nc5c3F)N3CCCCCC3CC4)c12 (mixture of isomers) [Example 6-20]	–	8.03	–	–	7.96	6.92	7.06
C#Cc1c(F)ccc2cc(O)cc(-c3nc4c5c(nc(OC[C@@]67CCCN6C[C@H](F)C7)nc5c3F)N3CCOCC[C@H]3CC4)c12 (single isomer, unassigned) [Example 9-1]	–	7.33	–	–	7.80	6.50	6.99
C#Cc1c(F)ccc2cc(O)cc(-c3nc4c5c(nc(OC[C@@]67CCCN6C[C@H](F)C7)nc5c3F)N3CCCC[C@H]3CC4)c12 [Example 1-1, 5-ethynyl-6-fluoro-4-((S)-1-fluoro-11-(((2R,7aS)-2-fluorotetrahydro-1H-pyrrolizin-7a(5H)-yl)methoxy)-5,5a,6,7,8,9-hexahydro-4H-3,9a,10,12-tetraazabenzo[4,5]cyclohepta[1,2,3-de]naphthalen-2-yl)naphthalen-2-ol]	7.90	8.41	7.60	7.83	–	–	–
CCc1c(F)ccc2cc(O)cc(-c3nc4c5c(nc(OC[C@@]67CCCN6C[C@H](F)C7)nc5c3F)N3CCCC[C@H]3CC4)c12 [Example 2-1, 5-ethyl-6-fluoro-4-((S)-1-fluoro-11-(((2R,7aS)-2-fluorotetrahydro-1H-pyrrolizin-7a(5H)-yl)methoxy)-5,5a,6,7,8,9-hexahydro-4H-3,9a,10,12-tetraazabenzo[4,5]cyclohepta[1,2,3-de]naphthalen-2-yl)naphthalen-2-ol]	7.26	7.61	6.94	7.13	–	–	–
C#Cc1c(F)ccc2cc(N)cc(-c3cc4c5c(nc(OC[C@@]67CCCN6C[C@H](F)C7)nc5c3F)N3CCCOCC3CC4)c12 (stereo partly drawn) [Example 3-2]	–	7.33	–	–	7.06	6.54	6.99
C#Cc1c(F)ccc2cc(O)cc(-c3nc4c5c(nc(OC[C@@]67CCCN6C[C@H](F)C7)nc5c3F)N3CCCOC[C@@H]3CC4)c12 [Example 6-1, 5-ethynyl-6-fluoro-4-((S)-1-fluoro-12-(((2R,7aS)-2-fluorotetrahydro-1H-pyrrolizin-7a(5H)-yl)methoxy)-4,5,5a,6,9,10-hexahydro-8H-7-oxa-3,10a,11,13-tetraazanaphtho[1,8-ab]heptalen-2-yl)naphthalen-2-ol]	–	8.87	–	–	9.96	8.90	9.38
C#Cc1c(F)ccc2cc(O)cc(-c3nc4c5c(nc(OC[C@@]67CCCN6C[C@H](F)C7)nc5c3F)N3CCCOCC3CC4)c12 (stereo partly drawn) [Example 6-2]	–	8.35	–	–	9.00	8.43	8.68
Oc1cc(-c2nc3c4c(nc(OC[C@@]56CCCN5C[C@H](F)C6)nc4c2F)N2CCCOC[C@H]2CC3)c2c(F)c(F)ccc2c1 [Example 6-3]	–	7.59	–	–	7.54	7.04	7.32
C#Cc1c(F)ccc2cccc(-c3nc4c5c(nc(OC[C@@]67CCCN6C[C@H](F)C7)nc5c3F)N3CCCOC[C@H]3CC4)c12 [Example 6-4]	–	< 6.00	–	–	< 6.00	< 6.00	< 6.00
C#Cc1c(F)ccc2cc(O)cc(-c3nc4c5c(nc(OC[C@@]67CCCN6C[C@H](F)C7)nc5c3F)N3CCCOC[C@H]3CC4)c12 [Example 6-5]	–	7.35	–	–	7.87	7.07	7.49
C#Cc1c(F)ccc2cc(N)cc(-c3nc4c5c(nc(OC[C@@]67CCCN6C[C@H](F)C7)nc5c3F)N3CCCOC[C@@H]3C=C4C)c12 [Example 7-7]	–	–	–	–	8.71	8.06	8.40
Cc1c(F)c(N)cc(-c2nc3c4c(nc(OC[C@@]56CCCN5C[C@H](F)C6)nc4c2F)N2CCCOC[C@@H]2CC3)c1C(F)(F)F [Example 7-11]	–	6.73	–	–	–	< 6.00	6.14
CCc1c(F)c(F)cc2cc(N)cc(-c3nc4c5c(nc(OCC67CCCN6CCC7)nc5c3F)N3CCCOC[C@@H]3CC4)c12 [Example 8-4]	–	6.89	–	–	–	< 6.00	< 6.00

Results, then the compound that gave them:

pEC50 [1]	pEC50 [2]	pEC50 ([3]; read-out: AsPC1 pERK EC50)	pEC50 [4]	pEC50 ([1]; Homo sapiens)	pEC50 ([3]; Homo sapiens, ASPC1)	pEC50 ([4]; Homo sapiens)	SMILES
7.33	6.86	7.07	7.26	–	–	–	C#Cc1c(F)ccc2cc(O)cc(-c3c(F)c4c5c(nc(OC[C@@]67CCCN6C[C@H](F)C7)nc5c3F)N3CCCOC[C@@H]3CC4)c12 (atropisomer, axis not shown) [Example 24-1, 4-((11S,14a5)-10,12-difluoro-8-(((2R,7a5)-2-fluorotetrahydro-1H-pyrrolizin-7a(5H1)-yl)methoxy)-1,4,5,13,14,14a-hexahydro-3H-[1,4]oxazepino[4′,3′:1,7]azepino[2,3,4-de]quinazolin-11-yl)-5-ethynyl-6-fluoronaphthalen-2-ol]
9.09	8.58	8.77	8.10	–	–	–	C#Cc1c(F)ccc2cc(O)cc(-c3c(F)c4c5c(nc(OC[C@@]67CCCN6C[C@H](F)C7)nc5c3F)N3CCCOC[C@@H]3CC4)c12 (atropisomer, axis not shown) [Example 24-2, 4-((11R,14aS)-10,12-difluoro-8-(((2R,7aS)-2-fluorotetrahydro-1H-pyrrolizin-7a(5H)-yl)methoxy)-1,4,5,13,14,14a-hexahydro-3H-[1,4]oxazepino[4′,3′:1,7]azepino[2,3,4-de]quinazolin-11-yl)-5-ethynyl-6-fluoronaphthalen-2-ol]
–	< 6.00	< 6.00	< 6.00	–	–	–	C#Cc1c(F)ccc2cc(N)cc(-c3c(F)c4c5c(nc(OC[C@@]67CCCN6C[C@H](F)C7)nc5c3F)N3CCCOC[C@@H]3CC4)c12 (atropisomer, axis not shown) [Example 25-1, 4-((11S,14aS)-10,12-difluoro-8-(((2R,7aS)-2-fluorotetrahydro-1H-pyrrolizin-7a(5H)-yl)methoxy)-1,4,5,13,14,14a-hexahydro-3H-[1,4]oxazepino[4′,3′:1,7]azepino[2,3,4-de]quinazolin-11-yl)-5-ethynyl-6-fluoronaphthalen-2-amine]
–	8.07	–	–	7.74	6.68	7.16	C#Cc1c(F)ccc2cc(O)cc(-c3nc4c5c(nc(OC[C@@]67CCCN6C[C@H](F)C7)nc5c3F)N3CCOCC[C@H]3CCC4)c12 (single isomer, unassigned) [Example 10-1]
–	6.47	–	–	6.61	< 6.00	< 6.00	C#Cc1c(F)ccc2cc(O)cc(-c3nc4c5c(nc(OC[C@@]67CCCN6C[C@H](F)C7)nc5c3F)N3CCOCC[C@@H]3CCC4)c12 (single isomer, unassigned) [Example 10-2]
–	8.53	–	–	9.05	7.26	8.11	C#Cc1c(F)ccc2cc(O)cc(-c3nc4c5c(nc(OC[C@@]67CCCN6C[C@H](F)C7)nc5c3F)N3CC(F)(F)COC[C@H]3CC4)c12 (single isomer, unassigned) [Example 17-1]
–	8.64	–	–	8.89	7.97	8.29	C#Cc1c(F)ccc2cc(O)cc(-c3nc4c5c(nc(OC[C@@]67CCCN6C[C@H](F)C7)nc5c3F)N3CC(F)(F)COC[C@@H]3CC4)c12 (single isomer, unassigned) [Example 17-2]
–	–	7.17	7.04	–	–	–	C#Cc1c(F)ccc2cc(N)cc(-c3c(F)c4c5c(nc(OC[C@@]67CCCN6C[C@H](F)C7)nc5c3F)N3CCCOC[C@@H]3CC4)c12 (single isomer, unassigned) [Example 25-2]
–	8.39	–	–	–	7.11	7.24	C#Cc1c(F)ccc2cc(N)cc(-c3nc4c5c(nc(OC[C@@]67CCCN6[C@H](COC(=O)N(C)C)CC7)nc5c3F)N3CCCOC[C@@H]3CC4)c12 [Example 23-4]
